Source: the supplement of paper PMC5908809

Columns and labels:
[1] = test system: normal NK cells expanded with K562-aAPC; experiment: percent inhibition of viability; higher = more inhibition; settings: 72 h, IL-2 2.5 ng/mL
Experimental: (§1)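 Drug sensitivity and resistance testing on K562-aAPC-expanded normal NK cells: 5 concentrations (10-fold steps over a 10,000-fold range), 72 h at 37 °C, viability by CellTiter-Glo normalised to DMSO and benzethonium chloride controls; DSS from the fitted curve.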

KHYG-1 (IL-2 2.5 ng/mL) [2] = experiment: drug sensitivity score (DSS) (DSS units); higher = more sensitive; extreme values may be limits of the assay; settings: 72 h
[3] = test system: normal primary NK cells, pool 1 (3 donors), resting (IL-2 0 ng/mL); experiment: as above; settings: 72 h
[4] = test system: normal primary NK cells, pool 1 (3 donors) (IL-2 2.5 ng/mL); experiment: as above; settings: 72 h
SNK-6 (IL-2 2.5 ng/mL) [5] = experiment: as above; settings: 72 h
[6] = test system: normal primary NK cells, pool 3 (3 donors) (IL-2 2.5 ng/mL); experiment: as above; settings: 72 h
[7] = test system: normal primary NK cells, pool 2 (3 donors) (IL-2 2.5 ng/mL); experiment: as above; settings: 72 h
KAI3 (IL-2 2.5 ng/mL) [8] = experiment: as above; settings: 72 h
NK-92 (IL-2 2.5 ng/mL) [9] = experiment: as above; settings: 72 h
YT (IL-2 2.5 ng/mL) [10] = experiment: as above; settings: 72 h
DERL-7 (IL-2 2.5 ng/mL) [11] = experiment: as above; settings: 72 h
NK-YS (IL-2 2.5 ng/mL) [12] = experiment: as above; settings: 72 h
NKL (IL-2 2.5 ng/mL) [13] = experiment: as above; settings: 72 h
IMC-1 (IL-2 20 ng/mL) [14] = experiment: as above; settings: 72 h
KHYG-1 (IL-2 2.5 ng/mL) [15] = experiment: percent inhibition of viability; higher = more inhibition; settings: 72 h
[16] = test system: normal primary NK cells, pool 1 (3 donors), resting (IL-2 0 ng/mL); experiment: as above; settings: 72 h
[17] = test system: normal primary NK cells, pool 1 (3 donors) (IL-2 2.5 ng/mL); experiment: as above; settings: 72 h
SNK-6 (IL-2 2.5 ng/mL) [18] = experiment: as above; settings: 72 h
[19] = test system: normal primary NK cells, pool 3 (3 donors) (IL-2 2.5 ng/mL); experiment: as above; settings: 72 h
[20] = test system: normal primary NK cells, pool 2 (3 donors) (IL-2 2.5 ng/mL); experiment: as above; settings: 72 h
KAI3 (IL-2 2.5 ng/mL) [21] = experiment: as above; settings: 72 h
NK-92 (IL-2 2.5 ng/mL) [22] = experiment: as above; settings: 72 h
YT (IL-2 2.5 ng/mL) [23] = experiment: as above; settings: 72 h
DERL-7 (IL-2 2.5 ng/mL) [24] = experiment: as above; settings: 72 h
NK-YS (IL-2 2.5 ng/mL) [25] = experiment: as above; settings: 72 h
NKL (IL-2 2.5 ng/mL) [26] = experiment: as above; settings: 72 h
IMC-1 (IL-2 20 ng/mL) [27] = experiment: as above; settings: 72 h
[28] = test system: normal NK cells expanded with K562-aAPC; experiment: drug sensitivity score (DSS) (DSS units); higher = more sensitive; extreme values may be limits of the assay; settings: 72 h; IL-2 2.5 ng/mL
Experimental: as §1

CC(=O)Nc1ccc(C(=O)Nc2ccccc2N)cc1 [Tacedinaline] (max concentration tested 1000 nM)
percent inhibition of viability [%]
Settings | 0.1 nM | 1 nM | 10 nM | 100 nM | 1000 nM
DERL-7 (IL-2 2.5 ng/mL) [24] | -0.72 | 2.51 | 4.2 | -1.26 | -25
IMC-1 (IL-2 20 ng/mL) [27] | -3.66 | -4.64 | -1.29 | 1.46 | 17.6
KAI3 (IL-2 2.5 ng/mL) [21] | -0.2 | 1.1 | -0.46 | -0.59 | 35.3
KHYG-1 (IL-2 2.5 ng/mL) [15] | -0.97 | -4.06 | -3.24 | 4.27 | 16.5
NK-92 (IL-2 2.5 ng/mL) [22] | -18.8 | 2.67 | -7.86 | 1.73 | 27.5
NK-YS (IL-2 2.5 ng/mL) [25] | -0.71 | -3.09 | -0.76 | 2.62 | 20.6
NKL (IL-2 2.5 ng/mL) [26] | -13.2 | -9.56 | -8.35 | 10.4 | 13.4
SNK-6 (IL-2 2.5 ng/mL) [18] | 1.48 | -10.9 | -5.83 | 1.17 | 46.3
YT (IL-2 2.5 ng/mL) [23] | -4.71 | -3.94 | -0.65 | 4.76 | 25.3
[1] | -1.06 | -4 | -3.33 | 3.27 | 14
[16] | -5.67 | 17.3 | 11.8 | 17 | 7.91
[17] | -1.61 | 16.8 | 8.47 | 8.43 | 13
[19] | -4.4 | 14.9 | 12.8 | -1.16 | -0.28
[20] | -2.79 | 13 | 9.29 | 6.96 | 7.45

Settings | drug sensitivity score
DERL-7 (IL-2 2.5 ng/mL) [11] | 0
IMC-1 (IL-2 20 ng/mL) [14] | 0.58
KAI3 (IL-2 2.5 ng/mL) [8] | 1.62
KHYG-1 (IL-2 2.5 ng/mL) [2] | 0.78
NK-92 (IL-2 2.5 ng/mL) [9] | 1.36
NK-YS (IL-2 2.5 ng/mL) [12] | 1
NKL (IL-2 2.5 ng/mL) [13] | 0.67
SNK-6 (IL-2 2.5 ng/mL) [5] | 2.54
YT (IL-2 2.5 ng/mL) [10] | 1.69
[3] | 5.06
[4] | 0.6
[6] | 0
[7] | 0
[28] | 0.42

C[C@@H]1CN(Cc2ccc(F)cc2)[C@@H](C)CN1C(=O)c1cc2c(C(=O)C(=O)N(C)C)cn(C)c2cc1Cl [Talmapimod] (max concentration tested 10000 nM)
percent inhibition of viability [%]
Settings | 1 nM | 10 nM | 100 nM | 1000 nM | 10000 nM
DERL-7 (IL-2 2.5 ng/mL) [24] | -8.76 | 3.34 | -3.64 | 2.18 | -3.8
IMC-1 (IL-2 20 ng/mL) [27] | -2.4 | -5.13 | -5.16 | -10.4 | 0.72
KAI3 (IL-2 2.5 ng/mL) [21] | -4.84 | 8.7 | 21.6 | 21.2 | 32.1
KHYG-1 (IL-2 2.5 ng/mL) [15] | -8.74 | -9.48 | -3.07 | -9.07 | -3.04
NK-92 (IL-2 2.5 ng/mL) [22] | -13.6 | -14.2 | -7.08 | -0.77 | 6.94
NK-YS (IL-2 2.5 ng/mL) [25] | -5.34 | -2.3 | 1.96 | 6.17 | 14.5
NKL (IL-2 2.5 ng/mL) [26] | -6.18 | -3.36 | 7.54 | 9.7 | 22.9
SNK-6 (IL-2 2.5 ng/mL) [18] | -0.46 | -0.9 | -3.03 | -23.7 | -10.1
YT (IL-2 2.5 ng/mL) [23] | -3.64 | -1.4 | 4.73 | 5.29 | 14.3
[1] | -9.71 | -4.89 | -9.38 | -4.26 | -10.1
[16] | -0.54 | -6.9 | 17.6 | 15.2 | 37
[17] | -13.6 | -10.8 | -4.95 | -6.75 | 2.92
[19] | -3.75 | 4.83 | 4.73 | 0.2 | 1.78
[20] | -0.88 | -7.3 | -3.09 | 1.69 | 0.02

Settings | drug sensitivity score
DERL-7 (IL-2 2.5 ng/mL) [11] | 0
IMC-1 (IL-2 20 ng/mL) [14] | 0
KAI3 (IL-2 2.5 ng/mL) [8] | 6.42
KHYG-1 (IL-2 2.5 ng/mL) [2] | 0
NK-92 (IL-2 2.5 ng/mL) [9] | 0
NK-YS (IL-2 2.5 ng/mL) [12] | 0.37
NKL (IL-2 2.5 ng/mL) [13] | 1.47
SNK-6 (IL-2 2.5 ng/mL) [5] | 0
YT (IL-2 2.5 ng/mL) [10] | 0.18
[3] | 4.01
[4] | 0
[6] | 0
[7] | 0
[28] | 0

COc1cc2c(N3CCN(C(=O)Nc4ccc(OC(C)C)cc4)CC3)ncnc2cc1OCCCN1CCCCC1 [Tandutinib] (max concentration tested 1000 nM)
percent inhibition of viability [%]
Settings | 0.1 nM | 1 nM | 10 nM | 100 nM | 1000 nM
DERL-7 (IL-2 2.5 ng/mL) [24] | 6.14 | 3.13 | 1.63 | 2.2 | -0.71
IMC-1 (IL-2 20 ng/mL) [27] | -5.53 | -2.46 | 0.78 | 2.8 | 18.4
KAI3 (IL-2 2.5 ng/mL) [21] | -0.83 | 3.14 | 3.31 | 3.31 | 17.9
KHYG-1 (IL-2 2.5 ng/mL) [15] | 3.28 | 0.15 | 6.9 | 6.14 | 16.8
NK-92 (IL-2 2.5 ng/mL) [22] | -7.68 | 0.56 | 17.9 | 8.5 | 19.1
NK-YS (IL-2 2.5 ng/mL) [25] | 2.01 | 2.91 | 6.63 | 1.61 | 13.4
NKL (IL-2 2.5 ng/mL) [26] | -15.4 | -9.75 | -9.72 | -2.92 | 7.53
SNK-6 (IL-2 2.5 ng/mL) [18] | 2.47 | -9.17 | 1.36 | -17.2 | -2.8
YT (IL-2 2.5 ng/mL) [23] | 1.06 | 0.08 | 6.39 | -0.96 | 9.65
[1] | 0.5 | 4.31 | 2.45 | 1.29 | 8.72
[16] | 6.87 | -8.83 | -1.76 | -7.72 | -7.9
[17] | 3.36 | -11.3 | -7.24 | -22 | -12.1
[19] | -11.8 | -8.39 | -1.84 | -4.05 | -10.6
[20] | -9.1 | 2.32 | -0.09 | -2.34 | 4.26

Settings | drug sensitivity score
DERL-7 (IL-2 2.5 ng/mL) [11] | 0
IMC-1 (IL-2 20 ng/mL) [14] | 0.83
KAI3 (IL-2 2.5 ng/mL) [8] | 0.84
KHYG-1 (IL-2 2.5 ng/mL) [2] | 0.42
NK-92 (IL-2 2.5 ng/mL) [9] | 4.33
NK-YS (IL-2 2.5 ng/mL) [12] | 0
NKL (IL-2 2.5 ng/mL) [13] | 0
SNK-6 (IL-2 2.5 ng/mL) [5] | 0
YT (IL-2 2.5 ng/mL) [10] | 0
[3] | 0
[4] | 0
[6] | 0
[7] | 0
[28] | 0
